Activity calls are given as the source filed them. No cut-off for these calls is given here.
What was measured:
[1] = biological target: Prostaglandin G/H synthase 1 (Homo sapiens) (UniProt P23219); test: Inhibition of thrombin-induced platelet aggregation above 100 uM; format: functional
[2] = biological target: Prostaglandin G/H synthase 1 (Homo sapiens) (UniProt P23219); test: Inhibition of thrombin-induced platelet aggregation below 100 uM; format: functional

Sequence of Prostaglandin G/H synthase 1 (Homo sapiens) (P23219 whole entry): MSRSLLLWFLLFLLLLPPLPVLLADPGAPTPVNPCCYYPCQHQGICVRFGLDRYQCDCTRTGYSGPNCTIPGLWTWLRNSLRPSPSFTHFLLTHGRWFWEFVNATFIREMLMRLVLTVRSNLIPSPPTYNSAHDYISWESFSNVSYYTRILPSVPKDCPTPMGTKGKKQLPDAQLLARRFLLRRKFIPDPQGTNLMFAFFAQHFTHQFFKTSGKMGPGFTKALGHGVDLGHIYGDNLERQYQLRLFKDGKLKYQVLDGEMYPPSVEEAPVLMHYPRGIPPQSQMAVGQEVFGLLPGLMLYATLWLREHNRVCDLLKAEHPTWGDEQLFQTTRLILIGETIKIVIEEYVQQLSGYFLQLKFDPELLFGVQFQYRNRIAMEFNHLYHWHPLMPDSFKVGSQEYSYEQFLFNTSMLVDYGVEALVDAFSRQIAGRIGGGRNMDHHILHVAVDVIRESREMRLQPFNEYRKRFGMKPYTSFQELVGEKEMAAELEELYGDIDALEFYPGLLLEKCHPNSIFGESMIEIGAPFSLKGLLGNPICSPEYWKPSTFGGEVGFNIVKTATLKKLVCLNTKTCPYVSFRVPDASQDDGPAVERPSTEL

Question: For `O=C(/C=C/c1ccccc1)c1cnn(Cc2ccccc2)c(=O)c1`, which Activity [1] is on record?
Answer: Its Activity is “Active”.

Question: What about the Activity [2] of the same compound?
Answer: The Activity was “inactive”.
